Results: patent US12390498B2, “Treatment of clostridium difficile infection” (Vedanta Biosciences, Inc., priority 2016, dated 2025)

What was measured:
[1] = test system: Clostridium difficile infection (CDI); details: cited from earlier work
[2] = Short-chain fatty acid producing abilities of Composition F strains

Compound | treated patients experiencing CDI relapse ([1]; CDI patients) [%] | preventing recurrent CDI ([1]; comparison with vancomycin) | SCFAs (short chain fatty acids produced) [2]
CCc1c(Cl)c(O)c(Cl)c(O)c1C(=O)O[C@H]1[C@H](O)[C@H](OC)[C@H](OC/C2=C\C=C\C[C@H](O)/C(C)=C/[C@H](CC)[C@@H](O[C@@H]3OC(C)(C)[C@@H](OC(=O)C(C)C)[C@H](O)[C@@H]3O)/C(C)=C/C(C)=C/C[C@@H]([C@@H](C)O)OC2=O)O[C@@H]1C [fidaxomicin] | 14 | superior to vancomycin | –
Bacteroides cellulosilyticus | – | – | A, S
